Columns and labels:
[1] = test system: forced swimming mice (immobility); assay: Forced swimming test in mice; assay type: in vivo, KM mice; conditions: for inhibition in vivo at 10 mg/kg: Mus musculus, po, mice, 10 mg/kg i.g., 100 × [(control − experiment)/control], read-out: Reduction (%) of immobility time vs control; for Antidepressant activity compared with laetispicine (in words): forced swimming test in mice, 10 mg/Kg
Method: KM mice (18–22 g) of either sex were obtained from Laboratory Animal Center of the College of Medicine, Fudan University. Animals were housed in standard environmental conditions with free access to food and water. The animals were used only once throughout the study. They were allowed to acclimatize to the laboratory seven days before pharmacological tests. The experiment procedures were conducted in compliance with the National Institutes of Health Guide for Care and Use of the laboratory Animals.
Tween 80 was purchased from Sinopharm Chemical Reagent Co., Ltd (Shanghai, China), fluoxetine from Shanghai Zhongxi Pharmaceutical Co., Ltd. All other reagents were of analytical grade. All drugs were dissolved in saline with 2% Tween 80. Drugs (10 mg/kg/2 mL) were administered by intragastric (i.g.) route 60 min before the forced swimming tests. The control group received only saline with 2% Tween 80 simultaneously.
The forced swimming test adopted here is a modification of the method described by Porsoltetal. Briefly, mice were individually forced to swim for 15 min in glass cylinders (height: 20 cm, diameter: 14 cm), containing 10 cm of water at 25 °C, which is a pre-test, and then mice were removed and dried before being returned to cages. Twenty-four hours later, mice were placed in the cylinders again for a 6-min test in the same system depicted above. The duration of immobility was recorded during the last 4 min of the 6-min testing period.
Data obtained were expressed as mean ± SEM and analyzed by analysis of variance (ANOVA) followed by Bonferroni’s test. p-values less than 0.05 (p < 0.05) were used as the significant level. The percent of inhibition was determined using the following formula: Inhibition (%) = 100 × [(control − experiment) / control].

hERG potassium channel [2] = target: T1, hERG potassium channel (Homo sapiens, UniProt Q12809); assay: hERG inhibition, automated QPatch patch clamp in CHO cells stably expressing hERG
T1 sequence (Q12809 whole entry): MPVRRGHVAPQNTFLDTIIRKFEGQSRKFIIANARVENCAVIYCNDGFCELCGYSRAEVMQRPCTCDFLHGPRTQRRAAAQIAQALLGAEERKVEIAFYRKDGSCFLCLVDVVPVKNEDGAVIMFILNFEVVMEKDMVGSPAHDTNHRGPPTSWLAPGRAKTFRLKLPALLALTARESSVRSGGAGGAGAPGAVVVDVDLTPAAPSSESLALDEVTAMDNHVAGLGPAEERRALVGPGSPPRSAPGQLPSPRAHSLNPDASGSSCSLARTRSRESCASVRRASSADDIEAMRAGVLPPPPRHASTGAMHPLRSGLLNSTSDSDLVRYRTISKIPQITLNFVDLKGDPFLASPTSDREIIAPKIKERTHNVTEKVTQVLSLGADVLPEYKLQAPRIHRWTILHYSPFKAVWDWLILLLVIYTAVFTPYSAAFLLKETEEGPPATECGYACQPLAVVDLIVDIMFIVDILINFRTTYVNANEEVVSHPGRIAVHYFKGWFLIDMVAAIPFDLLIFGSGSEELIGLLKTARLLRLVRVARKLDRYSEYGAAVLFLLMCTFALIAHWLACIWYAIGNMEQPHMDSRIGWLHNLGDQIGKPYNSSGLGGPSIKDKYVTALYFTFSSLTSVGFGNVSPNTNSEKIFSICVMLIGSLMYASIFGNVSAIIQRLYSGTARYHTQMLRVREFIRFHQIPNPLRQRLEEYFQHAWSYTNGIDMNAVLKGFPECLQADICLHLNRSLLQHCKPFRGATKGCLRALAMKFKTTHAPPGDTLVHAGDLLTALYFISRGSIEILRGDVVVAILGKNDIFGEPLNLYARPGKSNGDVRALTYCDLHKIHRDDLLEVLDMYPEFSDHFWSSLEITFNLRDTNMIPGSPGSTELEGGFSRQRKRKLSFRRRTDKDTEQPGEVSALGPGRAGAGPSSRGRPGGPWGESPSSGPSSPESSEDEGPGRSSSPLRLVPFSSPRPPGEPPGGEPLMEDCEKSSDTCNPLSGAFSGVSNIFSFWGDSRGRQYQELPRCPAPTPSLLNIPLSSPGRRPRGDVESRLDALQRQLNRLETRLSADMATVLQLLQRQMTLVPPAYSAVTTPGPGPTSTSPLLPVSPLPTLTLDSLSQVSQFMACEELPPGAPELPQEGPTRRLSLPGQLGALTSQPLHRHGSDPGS

hERG potassium channel [3] = target: T1, hERG potassium channel; assay: in vitro

Row | melting point | Compound | inhibition in vivo at 10 mg/kg [1] | inhibition at 1 µM (hERG potassium channel [2]; human, CHO cells stably expressing hERG) | Antidepressant activity compared with laetispicine (in words) [1] | IC50 (hERG potassium channel [2]) | inhibition at 1 µM (hERG potassium channel [3]) | inhibition at 10 µM (hERG potassium channel [3]) | inhibition at 100 µM (hERG potassium channel [3])
1 |  | CNCCC(Oc1ccc(C(F)(F)F)cc1)c1ccccc1 (stereo not shown) [Fluoxetine, fluoxetine, reference compound] | 0% |  |  |  |  |  | 
2 |  | COc1cc(N)c(Cl)cc1C(=O)NC1CCN(CCCOc2ccc(F)cc2)CC1OC (stereo not shown) [Cisapride, reference compound] |  | 97.9 ± 0.5% |  |  |  |  | 
3 |  | CC(C)CNC(=O)/C=C/C=C/CCC/C=C/Cc1ccc2c(c1)OCO2 [Laetispicine (1a), Laetispicine] | 33% |  |  |  |  |  | 
4 | 72 to 73 °C | COc1cc(C/C=C/CCC/C=C/C=C/C(=O)NCC(C)C)cc(OC)c1OC [Compound 1e, N-Isobutyl-11-(3,4,5-trimethoxyphenyl)undeca-2E,4E,9E-trienamide] | 27% |  | less antidepressant activities than laetispicine |  |  |  | 
5 |  | COc1ccc(C/C=C/CCC/C=C/C=C/C(=O)NCC(C)C)cc1 [Compound 1c, N-Isobutyl-11-(4-methoxyphenyl)undeca-2E,4E,9E-trienamide] | 5% |  | lost their antidepressant activities entirely |  |  |  | 
6 | 80 to 82 °C | CC(C)CNC(=O)/C=C/C=C/CCC/C=C/Cc1ccccc1 [Compound 1b, N-Isobutyl-11-phenylundeca-2E,4E,9E-trienamide] | 39% |  |  |  |  |  | 
7 | 61 to 63 °C | COc1ccc(C/C=C/CCC/C=C/C=C/C(=O)NCC(C)C)cc1OC [Compound 1d, N-Isobutyl-11-(3,4-dimethoxyphenyl)undeca-2E,4E,9E-trienamide] | 6% |  | lost their antidepressant activities entirely |  |  |  | 
8 |  | CC(C)CNC(=O)/C=C/C=C/CCC/C=C/Cc1ccc(Cl)cc1 [Compound 1h, N-Isobutyl-11-(4-chlorophenyl)undeca-2E,4E,9E-trienamide] | 52% |  | better antidepressant activities than that of laetispicine | > 100 µM | 8 ± 2.3% | 13.9 ± 2% | 24.2 ± 4.9%
9 |  | CC(C)CNC(=O)/C=C/C=C/CCC/C=C/Cc1ccc2c(c1)CCO2 [Compound 1f, N-Isobutyl-11-(2,3-dihydrobenzofuran-5-yl)undeca-2E,4E,9E-trienamide] | 5% |  | lost their antidepressant activities entirely |  |  |  | 
10 | 75 to 77 °C | CC(C)CNC(=O)/C=C/C=C/CCC/C=C/Cc1ccc(F)cc1 [Compound 1i, N-isobutyl-11-(4-fluorophenyl)undeca-2E,4E,9E-trienamide] | 43% |  | better antidepressant activities than that of laetispicine | > 100 µM | 7.1 ± 0.7% | 10.7 ± 0.1% | 17.7 ± 1.5%
11 | 69 to 72 °C | CC(C)CNC(=O)/C=C/C=C/CCC/C=C/Cc1ccc2c(c1)OCCO2 [Compound 1g, N-Isobutyl-11-(2,3-dihydrobenzo [1, 4]dioxin-6-yl)undeca-2E,4E,9E-trienamide] | 29% |  | less antidepressant activities than laetispicine |  |  |  | 

From PMC6268093, “Total Synthesis and Antidepressant Activities of Laetispicine and Its Derivatives” (Molecules, 2012)
